Key:
[1] = biological target: T1, Oxysterol-binding protein 2 (Homo sapiens, UniProt Q969R2); experiment: Sterol-Binding Assay; conditions: pH 7.4; 20 °C
T1 sequence (Q969R2 whole entry): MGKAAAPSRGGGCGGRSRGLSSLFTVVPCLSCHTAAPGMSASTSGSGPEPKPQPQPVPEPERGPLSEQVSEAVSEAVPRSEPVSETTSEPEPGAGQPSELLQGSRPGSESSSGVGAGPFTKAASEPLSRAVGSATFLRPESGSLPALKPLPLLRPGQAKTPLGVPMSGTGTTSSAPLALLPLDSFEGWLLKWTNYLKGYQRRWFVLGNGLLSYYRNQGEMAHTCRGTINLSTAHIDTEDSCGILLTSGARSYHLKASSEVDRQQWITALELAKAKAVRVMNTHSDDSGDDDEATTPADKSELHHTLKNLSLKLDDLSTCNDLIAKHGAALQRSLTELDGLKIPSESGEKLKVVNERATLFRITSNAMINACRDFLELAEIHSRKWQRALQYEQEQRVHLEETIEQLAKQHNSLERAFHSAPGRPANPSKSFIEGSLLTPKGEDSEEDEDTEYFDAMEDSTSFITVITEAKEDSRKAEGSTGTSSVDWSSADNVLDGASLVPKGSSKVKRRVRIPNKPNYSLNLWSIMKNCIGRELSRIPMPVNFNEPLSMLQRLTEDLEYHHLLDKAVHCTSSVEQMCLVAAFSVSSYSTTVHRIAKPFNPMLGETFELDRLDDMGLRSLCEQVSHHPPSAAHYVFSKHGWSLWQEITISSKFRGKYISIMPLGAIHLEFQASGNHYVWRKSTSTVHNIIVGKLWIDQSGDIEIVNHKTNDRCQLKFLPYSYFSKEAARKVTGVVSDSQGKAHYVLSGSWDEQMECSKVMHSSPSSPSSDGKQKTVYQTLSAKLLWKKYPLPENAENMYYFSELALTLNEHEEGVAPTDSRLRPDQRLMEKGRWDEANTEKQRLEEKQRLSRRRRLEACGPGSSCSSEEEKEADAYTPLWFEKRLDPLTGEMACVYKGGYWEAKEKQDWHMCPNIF
Method: (§1) Recombinant OSBP, ORP4L, or ORP4S (8 pmol) was incubated in 75 μl of binding buffer (10 mM HEPES (pH 7.4), 150 mM KCl, 2% (w/v) polyvinyl alcohol) containing radioactive sterols (with or without a 40-fold excess of unlabeled sterol). After 2 h at 20 °C, a 25-μl slurry of Talon resin (1:1, v/v) was added and mixed for 10 min. Talon resin and bound protein were washed three times with 300 μl of 10 mM HEPES (pH 7.4) and 150 mM KCl and sedimented by brief centrifugation. Bound proteins were eluted from the resin with 150 mM imidazole (pH 7.4), the resin was sedimented by centrifugation, and radioactivity bound to protein in the supernatant was measured by liquid scintillation counting.

[2] = biological target: T2, Oxysterol-binding protein 2 [1-181,275-916] (Homo sapiens, UniProt Q969R2); experiment: Sterol-Binding Assay; conditions: pH 7.4; 20 °C
T2 construct: 1-181,275-916
T2 sequence (Q969R2 whole entry): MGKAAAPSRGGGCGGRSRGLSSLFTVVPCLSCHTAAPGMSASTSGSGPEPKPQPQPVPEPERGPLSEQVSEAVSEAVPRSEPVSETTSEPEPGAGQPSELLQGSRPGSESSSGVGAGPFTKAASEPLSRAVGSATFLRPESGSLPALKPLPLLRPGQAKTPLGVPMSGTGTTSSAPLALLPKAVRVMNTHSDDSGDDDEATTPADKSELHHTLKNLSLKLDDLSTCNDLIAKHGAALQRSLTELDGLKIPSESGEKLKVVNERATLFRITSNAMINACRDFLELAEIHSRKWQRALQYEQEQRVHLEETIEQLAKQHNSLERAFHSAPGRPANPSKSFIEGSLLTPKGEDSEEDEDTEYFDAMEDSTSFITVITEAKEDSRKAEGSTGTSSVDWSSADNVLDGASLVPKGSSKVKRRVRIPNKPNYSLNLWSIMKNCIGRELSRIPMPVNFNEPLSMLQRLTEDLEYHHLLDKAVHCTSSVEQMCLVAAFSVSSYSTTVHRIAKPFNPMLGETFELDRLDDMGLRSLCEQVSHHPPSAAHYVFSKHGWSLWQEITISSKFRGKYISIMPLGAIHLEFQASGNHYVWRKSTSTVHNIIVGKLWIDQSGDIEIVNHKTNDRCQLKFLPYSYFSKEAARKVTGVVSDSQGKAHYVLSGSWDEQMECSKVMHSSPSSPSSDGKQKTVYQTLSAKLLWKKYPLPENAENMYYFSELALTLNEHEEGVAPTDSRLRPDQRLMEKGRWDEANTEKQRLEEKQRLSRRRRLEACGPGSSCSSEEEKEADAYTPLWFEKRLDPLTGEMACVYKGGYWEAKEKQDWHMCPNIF
Method: as §1

SMILES	Kd [1] [nM]	Kd [2] [nM]
CC(C)CCC[C@@H](C)[C@H]1CC[C@H]2[C@@H]3CC=C4C[C@@H](O)CC[C@]4(C)[C@H]3CC[C@]12C [(1S,2R,5S,10S,11S,14R,15R)-2,15-dimethyl-14-[(2R)-6-methylheptan-2-yl]tetracyclo[8.7.0.0^{2,7}.0^{11,15}]heptadec-7-en-5-ol]	68	60
C[C@H](CCCC(C)(C)O)[C@H]1CC[C@H]2[C@@H]3CC=C4C[C@@H](O)CC[C@]4(C)[C@H]3CC[C@]12C [(1S,2R,5S,10S,11S,14R,15R)-14-[(2R)-6-hydroxy-6-methylheptan-2-yl]-2,15-dimethyltetracyclo[8.7.0.0^{2,7}.0^{11,15}]heptadec-7-en-5-ol]	17	23

Reference: BindingDB's records for doi:10.1074/jbc.M114.571216 (Dalhousie University, 2014)
